Assay results reported in publication PMC12462173, “Evaluation of in vitro drug-drug interactions of ivermectin and antimalarial compounds” (Malaria Journal, 2025).
Values joined by “and” are separate entries in the source; they are usually repeats but may differ in a detail not shown here. Identical values can stand only once. “Also recorded” adds a separate entry of the source.

What was measured:
[1] = enzymes that metabolize the drug; cited from earlier work
[2] = reported peak concentration in a patient population associated with standard dosing; cited from earlier work
[3] = test system: pooled human liver microsomes; assay: In vitro metabolism of ivermectin in pooled human liver microsomes, alone and co-incubated with an antimalarial (CYP-mediated DDI)
Method: Pooled human liver microsomes (containing 20 mg/mL protein) were thawed on ice, and the reactions were conducted in a 96-well plate (1 mL, Agilent Technologies, Santa Clara, CA, USA). The assay buffer consisted of 0.1 M potassium phosphate buffer (pH 7.4). The premix solutions for each condition were prepared with specific volumes of each component, as outlined in Table S1. The premix solution was prepared by combining ivermectin, antimalarial drug, microsomes, and buffer. Three replicates of each premix solution were prepared, and 475 µL of each premix was transferred into separate wells of the 96-well plate. The plate was incubated at 37 °C for 5 min with gentle shaking (300 rpm). Following incubation, 25 µL of 20 mM NADPH was added to each well, and the solution was mixed thoroughly. The final incubation mixture (500 µL) contained a total microsome concentration of 0.53 mg/mL. To monitor the metabolism of ivermectin, 50 µL from each well was collected at 0, 15, 30, 45, 60, 90, 120, and 150 min and transferred to a new plate containing 200 µL of cold acetonitrile and 100 ng/mL of ivermectin-D2 (internal standard). The collection plate was kept on ice during sampling. After sample collection, the plate was sealed and centrifuged at 1,100 × g for 15 min at 4 °C. A 100 µL aliquot of the clear supernatant was transferred to a new plate for immediate LC–MS analysis.
The LC system consisted of an Agilent 1260 quaternary pump, an Agilent 1260 autosampler (set at 6 °C), and an Agilent 1290 column compartment (set at 40 °C). Five µL of sample was analysed on an Acquity UPLC HSS T3 reversed-phase column (2.1 × 100 mm, 1.8 μm) with a precolumn (2.1 × 5 mm, 1.8 μm) under a linear gradient. The mobile phase consisted of water with 10 mM ammonium acetate and 0.1% formic acid (A) and acetonitrile:water (95:5, v/v) with 10 mM ammonium acetate and 0.1% formic acid (B), at a flow rate of 0.3 mL/min. The gradient started at 75% B, ramped to 90% B over 2 min, held at 90% B for 4 min, and returned to 75% B in 0.1 min, with a 3.9-min re-equilibration. A Sciex TripleTOF 5600 + Q-TOF MS with DuoSpray ESI was used for LC–MS analysis in the positive mode, with source conditions set at 40 psi for ion source gas 1 (GS1) and gas 2 (GS2), 30 psi for curtain gas (CUR), 4,500 V for ion spray voltage floating (ISVF), 350 °C source temperature (TEM), and 120 V declustering potential (DP). Data were acquired from m/z 100–1,000 in TOF–MS scan mode using Analyst TF Software 1.8, and ivermectin quantification (ivermectin peak area/internal standard peak area) was performed with MultiQuant Software (Sciex, Framingham, MA, USA) with a high resolution TOF–MS scan mode.
The metabolism rate of ivermectin was evaluated based on the normalized peak area (%) of ivermectin over a total of 150 min of incubation. […] This normalized value was further adjusted relative to the pre-incubation ivermectin peak area (zero-minute sample) within a sample collection series, resulting in final ivermectin concentrations expressed as relative peak areas. All individual ivermectin concentrations (relative peak area) from triplicate incubations were fitted to an ordinary linear regression, separately conducted for ivermectin alone and ivermectin co-incubated with an antimalarial. The estimated (±95% CI) slope and intercept of the regression analysis was derived using GraphPad Prism v.10.4.2. Additionally, the slopes of the regression analyses were compared statistically between ivermectin alone and when co-incubation with an antimalarial, as an automated output from the regression analysis. Furthermore, the relative difference (%) in in vitro metabolism rate (i.e. difference between regression slopes) for ivermectin alone and when co-incubated with an antimalarial was calculated as shown in Eq. 1.

[4] = Rhesus macaques; cited from earlier work

| Structure (SMILES) | Metabolism pathway [1] | Reported Cmax (ng/ml) [2] | further results |
| --- | --- | --- | --- |
| COc1cc(NC(C)CCCN)c2ncccc2c1 (centres unmarked) [Primaquine] | Major CYP2D6; Minor CYP1A2 [23, 30] | 167 [11] ng/ml | – |
| [H]/N=C(\N/C(=N/[H])Nc1ccc(Cl)cc1)NC(C)C [Proguanil] | CYP2C19 [18] | 750 [11] ng/ml | – |
| O=C1C(O)=C([C@H]2CC[C@H](c3ccc(Cl)cc3)CC2)C(=O)c2ccccc21 [Atovaquone] | Major CYP3A4; Minor CYP2C9 [21, 22] | 13,300 [11] ng/ml | – |
| CO[C@H]1O[C@@H]2O[C@@]3(C)CC[C@H]4[C@H](C)CC[C@@H]([C@H]1C)[C@@]24OO3 [Artemether] | Major CYP2B6; Minor CYP3A4 [19, 20, 26] | 186 [11] ng/ml | – |
| COc1cc(C)c2c(Oc3cccc(C(F)(F)F)c3)c(OC)cc(NC(C)CCCN)c2n1 (centres unmarked) [Tafenoquine] | CYP2D6 [27] | 300 [13] ng/ml | – |
| C[C@H]1[C@H](OC(=O)CCC(=O)O)O[C@@H]2O[C@@]3(C)CC[C@H]4[C@H](C)CC[C@@H]1[C@@]24OO3 [Artesunate] | – | 244 [11] ng/ml | – |
| Clc1ccc2c(N3CCN(CCCN4CCN(c5ccnc6cc(Cl)ccc56)CC4)CC3)ccnc2c1 [Piperaquine] | Major CYP3A4; Minor CYP2C8 [14] | 568 [11] ng/ml | – |
| C[C@H]1[C@@H](O)O[C@@H]2O[C@@]3(C)CC[C@H]4[C@H](C)CC[C@@H]1[C@@]24OO3 [Dihydroartemisinin] | Glucuronidation by UGT1A9 and UGT2B7 [29] | 421 [3] ng/ml | – |
| CCc1nc(N)nc(N)c1-c1ccc(Cl)cc1 [Pyrimethamine] | CYP1B1, CYP2C9 [23] | 280 [11] ng/ml | DDI effect on the in vitro metabolism rate of ivermectin (class in words) [3]: little impact; Intercept (95%CI) of linear regression of ivermectin relative peak area (%), combination ([3]; human, pH 7.4): 96.7 (95.0-98.3); Slope (95%CI) of linear regression of ivermectin relative peak area (%) over time, combination ([3]; human, pH 7.4): -0.21 (-0.24 to -0.19) |
| CCCCN(CCCC)CC(O)c1cc(Cl)cc2c1-c1ccc(Cl)cc1/C2=C/c1ccc(Cl)cc1 (centres unmarked) [Lumefantrine] | CYP3A4 [19, 20] | 25,700 [11] ng/ml | – |
| COc1ncnc(NS(=O)(=O)c2ccc(N)cc2)c1OC [Sulfadoxine] | Acetylation by N-Acetyltransferase 2 [25] | 130,000 [11] ng/ml | – |
| CCN(CC)CCCC(C)Nc1ccnc2cc(Cl)ccc12 (centres unmarked) [Chloroquine] | – | 1430 [11] ng/ml | DDI effect on the in vitro metabolism rate of ivermectin (class in words) [3]: substantial; Exposure to ivermectin on co-administration [4]: increased exposure to ivermectin |
| CCN(CC)Cc1cc(Nc2ccnc3cc(Cl)ccc23)ccc1O [Amodiaquine] | Major CYP2C8; Minor CYP1A1, CYP1B1 [23, 28] | – | – |
| CC[C@H](C)[C@H]1O[C@]2(CC[C@@H]1C)C[C@@H]1C[C@@H](C/C=C(\C)[C@@H](O[C@H]3C[C@H](OC)[C@@H](O[C@H]4C[C@H](OC)[C@@H](O)[C@H](C)O4)[C@H](C)O3)[C@@H](C)/C=C/C=C3\CO[C@@H]4[C@H](O)C(C)=C[C@@H](C(=O)O1)[C@]34O)O2 [Ivermectin] | primarily metabolized by CYP3A4 and to a lesser extent CYP3A5 and CYP2C8; also recorded: Major CYP3A4; Minor CYP3A5, CYP2C8 [31, 32] | 119 [3] ng/ml | Intercept (95%CI) of linear regression of ivermectin relative peak area (%), ivermectin alone ([3]; ivermectin 1 µM alone, control run paired with the antimalarial of the same table line): 97.6 (95.4-99.9) and 96.1 (94.1-98.1) and 98.0 (96.7-99.2) and 97.7 (96.2-99.2) and 98.0 (96.6-99.4) and 100.1 (98.5-101.7) and 97.8 (95.9-99.8) |
| OC(c1cc(C(F)(F)F)nc2c(C(F)(F)F)cccc12)C1CCCCN1 (centres unmarked) [Mefloquine] | – | 2700 [11] ng/ml | DDI effect on the in vitro metabolism rate of ivermectin (class in words) [3]: substantial |
| COc1ccc2nc3cc(Cl)ccc3c(Nc3cc(CN4CCCC4)c(O)c(CN4CCCC4)c3)c2n1 [Pyronaridine] | CYP1A2, CYP2D6, CYP3A4 [24] | 571 [12] ng/ml | – |
